For test [1], the target named is Mcl-1 (Homo sapiens (Human), UniProt Q07820). Put plainly: TR-FRET binding assay, FITC-Bak peptide and MBP-tagged Mcl-1. The settings on record: read-out: Ki for Inhibition of Mcl-1 by TR-FRET assay. The protocol:
Compounds are diluted in DMSO in a 16-point, semilog serial dilution scheme. […] The plate was mixed and incubated for 3 hours at room temperature. […] TR-FRET signal is plotted and IC50 and Ki values are calculated in the same manner as the fluorescence polarization anisotropy based competition assays.

Test [2] concerns H929 human cancer cell lines. Put plainly: Cellular viability / proliferation (Cell TiterGlo, 72 h). The class given is cell-based. The procedure, abridged: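 Top dose 50 μM, serially diluted 2-fold, applied one day after seeding (1,000 cells/well, 10% FBS), DMSO below 1%.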
A general note: Cellular ATP, detected with luciferase, serves as a proxy for viable cell number.

The mark [3] stands for this setting: Homo sapiens, NCI-H929, 72 h, read-out: GI50 on cellular proliferation of H929 human cancer cell lines, H929 cells, 72 h, Cell TiterGlo, 10% FBS.

Where two headings read alike, the source gives them in different places. A value given as a limit tells only on which side of the number the result lay.

Chain of Mcl-1 (Q07820 172-327): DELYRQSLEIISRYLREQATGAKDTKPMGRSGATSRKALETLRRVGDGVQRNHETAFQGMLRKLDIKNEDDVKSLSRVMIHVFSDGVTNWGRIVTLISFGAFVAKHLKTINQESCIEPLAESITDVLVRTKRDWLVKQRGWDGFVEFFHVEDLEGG

The term Ki denotes a measure of affinity in units of concentration, obtained from inhibition or displacement. On to `Cc1cc(OCCCc2c3n(c4c(-c5c(C)nn(C)c5C)c(Cl)ccc24)[C@H](C)CN(c2cc(CCN4CCN(C)CC4)cc4cc(C(=O)O)n(C)c24)C3=O)cc(C)c1Cl` [Example 725, (R)-7-(7-chloro-10-(3-(4-chloro-3,5-dimethylphenoxy)propyl)-4-methyl-1-oxo-6-(1,3,5-trimethyl-1H-pyrazol-4-yl)-3,4-dihydropyrazino[1,2-a]indol-2(1H)-yl)-1-methyl-5-(2-(4-methylpiperazin-1-yl)ethyl)-1H-indole-2-carboxylic acid], for which the Ki in test [1] is less than 0.2 nM. The GI50 in test [2] (setting [3]) was less than 200 nM.

As to `Cc1cc(OCCCc2c3n(c4c(-c5c(C)nn(C)c5C)c(Cl)ccc24)[C@H](C)CN(c2c(C)ccc4cc(C(=O)O)n(C)c24)C3=O)cc(C)c1Cl` [Example 726, (R)-7-(7-Chloro-10-(3-(4-chloro-3,5-dimethylphenoxy)propyl)-4-methyl-1-oxo-6-(1,3,5-trimethyl-1H-pyrazol-4-yl)-3,4-dihydropyrazino[1,2-a]indol-2(1H)-yl)-1,6-dimethyl-1H-indole-2-carboxylic acid], in test [1], the Ki was less than 0.2 nM. For the same compound, in test [2] (setting [3]), the GI50 was determined as 260 nM.

`COc1ccc(N2C[C@@H](C)n3c(c(CCCOc4cc(C)c(Cl)c(C)c4)c4ccc(Cl)c(-c5c(C)n[nH]c5C)c43)C2=O)c2c1cc(C(=O)O)n2C` [Example 727, (R)-7-(7-chloro-10-(3-(4-chloro-3,5-dimethylphenoxy)propyl)-6-(3,5-dimethyl-1H-pyrazol-4-yl)-4-methyl-1-oxo-3,4-dihydropyrazino[1,2-a]indol-2(1H)-yl)-4-methoxy-1-methyl-1H-indole-2-carboxylic acid]: the Ki in test [1] is less than 0.2 nM. In addition, the GI50 in test [2] (setting [3]) worked out at 500 nM.

Take `COCCn1c(C(=O)O)cc2c(OC)ccc(N3C[C@@H](C)n4c(c(CCCOc5cc(C)c(Cl)c(C)c5)c5ccc(Cl)c(-c6c(C)n[nH]c6C)c54)C3=O)c21` [Example 728, (R)-7-(7-chloro-10-(3-(4-chloro-3,5-dimethylphenoxy)propyl)-6-(3,5-dimethyl-1H-pyrazol-4-yl)-4-methyl-1-oxo-3,4-dihydropyrazino[1,2-a]indol-2(1H)-yl)-4-methoxy-1-(2-methoxyethyl)-1H-indole-2-carboxylic acid]: the inhibition constant Ki in test [1] is less than 0.2 nM. In test [2] (setting [3]), the GI50 is 710 nM.

Regarding “(R)-7-Chloro-10-(3-(4-chloro-3,5-dimethylphenoxy)propyl)-4-methyl-2-(5-(1-methyl-1H-1,2,4-triazol-3-yl)-1-(2-morpholinoethyl)-1H-indol-3-yl)-4-(1,3,5-trimethyl-1H-pyrazol-4-yl)-3,4-dihydropyrazino[1,2-a]indol-1(2H)-one [Example 583]”, the Ki in test [1] was 0.73 nM. For the same compound, the GI50 in test [2] (H929 cells, 72 h, Cell TiterGlo, 10% FBS, read-out: GI50 on cellular proliferation of H929 human cancer cell lines) was less than 200 nM.

Values taken from patent publication US11596639B2, “Substituted indole Mcl-1 inhibitors” (Vanderbilt University, priority 2016, dated 2023).
